IC50 data for 41 compounds are collected here from BindingDB's records for doi:10.1021/jm801063n (University of Auckland, 2009).

The experiment in a line: Inhibition of recombinant perforin-mediated lysis of human Jurkat T cells by 51Cr release assay.
A word on the IC50: it is the concentration at which inhibition is half-maximal. `Cc1cc2c(c(=O)[nH]1)C(=O)N/C2=C\c1ccc(-c2ccccc2)s1` [(Z)-6-Methyl-1-((5-phenylthiophen-2-yl)methylene)-1H-pyrrolo[3,4-c]pyridine-3,4(2H,5H)-dione]: the IC50 is above 20 µM.
Take `Cc1cc2c(c(=S)[nH]1)C(=O)O/C2=C\c1ccc(-c2ccccc2)o1` [(Z)-6-Methyl-1-((5-phenylfuran-2-yl)methylene)-4-thioxo-4,5-dihydrofuro[3,4-c]pyridin-3(1H)-one]: the IC50 came to 4 µM.
The figure for `Cc1cc2c(c(=S)[nH]1)C(=O)O/C2=C\c1ccc(F)cc1` [(Z)-1-(4-Fluorobenzylidene)-6-methyl-4-thioxo-4,5-dihydrofuro[3,4-c]pyridin-3(1H)-one] is above 20 µM.
As for `Cc1cc2c(c(=O)[nH]1)C(=O)O/C2=C\c1ccc(C)o1` [(Z)-6-Methyl-1-((5-methylfuran-2-yl)methylene)furo[3,4-c]pyridine-3,4(1H,5H)-dione], the figure is above 20 µM.
The figure for `Cc1cc2c(c(=S)[nH]1)C(=O)O/C2=C\c1csc(-c2ccccc2)c1` [(Z)-6-Methyl-1-((5-phenylthiophen-3-yl)methylene)-4-thioxo-4,5-dihydrofuro[3,4-c]pyridin-3(1H)-one] is above 20 µM.
Regarding `Cc1cc2c(c(=S)[nH]1)C(=O)O/C2=C\c1ccc(-c2ccccc2)s1` [(Z)-6-Methyl-1-((5-phenylthiophen-2-yl)methylene)-4-thioxo-4,5-dihydrofuro[3,4-c]pyridin-3(1H)-one], the IC50 was found to be 3.4 µM.
As for `Cc1cc2c(c(=S)[nH]1)C(=O)O/C2=C\c1ccco1` [(Z)-1-(Furan-2-ylmethylene)-6-methyl-4-thioxo-4,5-dihydrofuro[3,4-c]pyridin-3(1H)-one], the figure is 4.4 µM.
In the case of `Cc1cc2c(c(=O)[nH]1)C(=O)O/C2=C\c1csc2ccccc12` [(Z)-1-(Benzo[b]thiophen-3-ylmethylene)-6-methylfuro[3,4-c]pyridine-3,4(1H,5H)-dione], the IC50 worked out at 8.5 µM.
As for `Cc1cc2c(c(=S)[nH]1)C(=O)O/C2=C\c1ccc(Cl)cc1` [(Z)-1-(4-Chlorobenzylidene)-6-methyl-4-thioxo-4,5-dihydrofuro[3,4-c]pyridin-3(1H)-one], the figure is above 20 µM; as for `COc1cccc2scc(/C=C3\OC(=O)c4c3cc(C)[nH]c4=S)c12` [(Z)-1-[(4-Methoxy-1-benzothien-3-yl)methylene]-6-methyl-4-thioxo-4,5-dihydrofuro[3,4-c]pyridine-3(1H)-one], 3.8 µM.
As for `Cc1cc2c(c(=S)[nH]1)C(=O)O/C2=C\c1ccc(C)s1` [(Z)-6-Methyl-1-((5-methylthiophen-2-yl)methylene)-4-thioxo-4,5-dihydrofuro[3,4-c]pyridin-3(1H)-one], the figure is 7.2 µM; as for `Cc1cc2c(c(=S)[nH]1)C(=O)O/C2=C\c1ccccc1` [(Z)-1-Benzylidene-6-methyl-4-thioxo-4,5-dihydrofuro[3,4-c]pyridin-3(1H)-one], above 20 µM.
Turning to `Cc1cc2c(c(=S)[nH]1)C(=O)O/C2=C\c1ccsc1` [(Z)-6-Methyl-1-(thiophen-3-ylmethylene)-4-thioxo-4,5-dihydrofuro[3,4-c]pyridin-3(1H)-one], the IC50 is above 20 µM.
Consider `COc1cccc2cc(/C=C3\OC(=O)c4c3cc(C)[nH]c4=S)oc12` [(Z)-1-((7-Methoxybenzofuran-2-yl)methylene)-6-methyl-4-thioxo-4,5-dihydrofuro[3,4-c]pyridin-3(1H)-one], for which the IC50 stood at 3 µM.
The figure for `COc1cc2cc(/C=C3\OC(=O)c4c3cc(C)[nH]c4=S)[nH]c2cc1OCc1ccccc1` [(Z)-1-((6-(Benzyloxy)-5-methoxy-1H-indol-2-yl)methylene)-6-methyl-4-thioxo-4,5-dihydrofuro[3,4-c]pyridin-3(1H)-one] is above 20 µM; for `Cc1cc2c(c(=S)[nH]1)C(=O)O/C2=C\c1ccoc1` [(Z)-1-(Furan-3-ylmethylene)-6-methyl-4-thioxo-4,5-dihydrofuro[3,4-c]pyridin-3(1H)-one] it is above 20 µM.
With `Cc1cc2c(c(=S)[nH]1)C(=O)O/C2=C\c1csc2ccc(Br)cc12` [(Z)-1-((5-Bromobenzo[b]thiophen-3-yl)methylene)-6-methyl-4-thioxo-4,5-dihydrofuro[3,4-c]pyridin-3(1H)-one], the IC50 turned out to be 7.5 µM.
The figure for `CSc1ccc(/C=C2\OC(=O)c3c2cc(C)[nH]c3=S)cc1` [(Z)-6-Methyl-1-(4-(methylthio)benzylidene)-4-thioxo-4,5-dihydrofuro[3,4-c]pyridin-3(1H)-one] is above 20 µM.
As for `Cc1cc2c(c(=S)[nH]1)C(=O)O/C2=C\c1cc2ccccc2[nH]1` [(Z)-1-((1H-Indol-2-yl)methylene)-6-methyl-4-thioxo-4,5-dihydrofuro[3,4-c]pyridin-3(1H)-one], the IC50 turned out to be 1.3 µM.
In the case of `Cc1cc2c(c(=S)[nH]1)C(=O)O/C2=C\c1cccn1C` [(Z)-6-Methyl-1-((1-methyl-1H-pyrrol-2-yl)methylene)-4-thioxo-a4,5-dihydrofuro[3,4-c]pyridin-3(1H)-one], the IC50 was above 20 µM.
As for `Cc1cc2c(c(=S)[nH]1)C(=O)O/C2=C\c1cn(C)c2ccccc12` [(Z)-6-Methyl-1-((1-methyl-1H-indol-3-yl)methylene)-4-thioxo-4,5-dihydrofuro[3,4-c]pyridin-3(1H)-one], the figure is 4.3 µM; as for `Cc1cc2c(c(=S)[nH]1)C(=O)O/C2=C\c1c[nH]c2ccccc12` [(Z)-1-((1H-Indol-3-yl)methylene)-6-methyl-4-thioxo-4,5-dihydrofuro[3,4-c]pyridin-3(1H)-one], above 20 µM.
The figure for `COc1ccc2oc(/C=C3\OC(=O)c4c3cc(C)[nH]c4=S)cc2c1` [(Z)-1-((5-Methoxybenzofuran-2-yl)methylene)-6-methyl-4-thioxo-4,5-dihydrofuro[3,4-c]pyridin-3(1H)-one] is 2.4 µM.
The figure for `Cc1cc2c(c(=S)[nH]1)C(=O)O/C2=C\c1ccc(OC(F)(F)F)cc1` [(Z)-6-Methyl-4-thioxo-1-(4-(trifluoromethoxy)benzylidene)-4,5-dihydrofuro[3,4-c]pyridin-3(1H)-one] is above 20 µM; for `Cc1cc2c(c(=S)[nH]1)C(=O)O/C2=C\c1cc2ccccc2s1` [(Z)-1-(Benzo[b]thiophen-2-ylmethylene)-6-methyl-4-thioxo-4,5-dihydrofuro[3,4-c]pyridin-3(1H)-one] it is 9.5 µM; for `Cc1cc2c(c(=O)[nH]1)C(=O)O/C2=C\c1ccc(-c2ccccc2)s1` [(Z)-6-Methyl-1-((5-phenylthiophen-2-yl)methylene)furo[3,4-c]pyridine-3,4(1H,5H)-dione] it is 5 µM.
As for `Cc1cc2c(c(=O)[nH]1)C(=O)O/C2=C\c1cn(C)c2ccccc12` [(Z)-6-Methyl-1-((1-methyl-1H-indol-3-yl)methylene)furo[3,4-c]pyridine-3,4(1H,5H)-dione], the half-maximal inhibitory concentration (IC50) is above 20 µM.
The figure for `COc1ccc2cc(/C=C3\OC(=O)c4c3cc(C)[nH]c4=S)[nH]c2c1` [(Z)-1-((6-Methoxy-1H-indol-2-yl)methylene)-6-methyl-4-thioxo-4,5-dihydrofuro[3,4-c]pyridin-3(1H)-one] is 3.1 µM.
The figure for `Cc1cc2c(c(=S)[nH]1)C(=O)O/C2=C\c1ncc[nH]1` [(Z)-1-((1H-Imidazol-2-yl)methylene)-6-methyl-4-thioxo-4,5-dihydrofuro[3,4-c]pyridin-3(1H)-one] is above 20 µM; for `CC(=O)Nc1ccc(/C=C2\OC(=O)c3c2cc(C)[nH]c3=S)cc1` [(Z)-N-(4-((6-Methyl-3-oxo-4-thioxo-4,5-dihydrofuro[3,4-c]pyridin-1(3H)-ylidene)methyl)phenyl)acetamide] it is above 20 µM; for `Cc1cc2c(c(=S)[nH]1)C(=O)O/C2=C\c1ccc[nH]1` [(Z)-1-((1H-Pyrrol-2-yl)methylene)-6-methyl-4-thioxo-4,5-dihydrofuro[3,4-c]pyridin-3(1H)-one] it is above 20 µM.
On to `COc1cccc2oc(/C=C3\OC(=O)c4c3cc(C)[nH]c4=S)cc12` [(Z)-1-((4-Methoxybenzofuran-2-yl)methylene)-6-methyl-4-thioxo-4,5-dihydrofuro[3,4-c]pyridin-3(1H)-one], for which the IC50 came out at 6.7 µM.
As for `Cc1cc2c(c(=O)[nH]1)C(=O)O/C2=C\c1cc2ccccc2s1` [(Z)-1-(Benzo[b]thiophen-2-ylmethylene)-6-methylfuro[3,4-c]pyridine-3,4(1H,5H)-dione], the figure is 4.6 µM; as for `Cc1cc2c(c(=S)[nH]1)C(=O)O/C2=C\c1ccc(N(C)C)cc1` [(Z)-1-(4-(Dimethylamino)benzylidene)-6-methyl-4-thioxo-4,5-dihydrofuro[3,4-c]pyridin-3(1H)-one], above 20 µM.
Take `Cc1cc2c(c(=O)[nH]1)C(=O)O/C2=C\c1ccc[nH]1` [(Z)-1-((1H-Pyrrol-2-yl)methylene)-6-methylfuro[3,4-c]pyridine-3,4(1H,5H)-dione]: the IC50 is above 20 µM.
For `COc1ccc2cc(/C=C3\OC(=O)c4c3cc(C)[nH]c4=S)sc2c1` [(Z)-1-((6-Methoxybenzo[b]thiophen-2-yl)methylene)-6-methyl-4-thioxo-4,5-dihydrofuro[3,4-c]pyridin-3(1H)-one], the IC50 was 5.4 µM.
The figure for `Cc1cc2c(c(=S)[nH]1)C(=O)O/C2=C\c1cccs1` [(Z)-6-Methyl-1-(thiophen-2-ylmethylene)-4-thioxo-4,5-dihydrofuro[3,4-c]pyridin-3(1H)-one] is 8.6 µM; for `COc1ccc2sc(/C=C3\OC(=O)c4c3cc(C)[nH]c4=S)cc2c1` [(Z)-1-((5-Methoxybenzo[b]thiophen-2-yl)methylene)-6-methyl-4-thioxo-4,5-dihydrofuro[3,4-c]pyridin-3(1H)-one] it is 13.1 µM; for `COc1ccc2scc(/C=C3\OC(=O)c4c3cc(C)[nH]c4=S)c2c1` [(Z)-1-((5-Methoxybenzo[b]thiophen-3-yl)methylene)-6-methyl-4-thioxo-4,5-dihydrofuro[3,4-c]pyridin-3(1H)-one] it is 5.1 µM.
With `Cc1cc2c(c(=S)[nH]1)C(=O)O/C2=C\c1ccc(-c2ccccc2)cc1` [(Z)-1-(Biphenyl-4-ylmethylene)-6-methyl-4-thioxo-4,5-dihydrofuro[3,4-c]pyridin-3(1H)-one], the IC50 is above 20 µM.
Regarding `COc1ccc2cc(/C=C3\OC(=O)c4c3cc(C)[nH]c4=S)oc2c1` [(Z)-1-((6-Methoxybenzofuran-2-yl)methylene)-6-methyl-4-thioxo-4,5-dihydrofuro[3,4-c]pyridin-3(1H)-one], the IC50 was 7.2 µM.
